ChEMBL document CHEMBL5380832, “Serine-/Cysteine-Based sp2-Iminoglycolipids as Novel TLR4 Agonists: Evaluation of Their Adjuvancy and Immunotherapeutic Properties in a Murine Model of Asthma” (J Med Chem, 2023)
Calls of active or inactive are those of the source. No cut-off for these calls is given here.

Key:
[1] = test system: Mus musculus; test: Immunomodulatory activity in OVA-sensitized asthmatic BALB/c mouse model assessed as inhibition of methacholine induced airway hyperreactivity by measuring pulmonary resistance at 20 microg/g, ip administered after day 14 OVA sensitization; type: functional; set-up: scale not given: the % may be the effect or the level left; conditions: dose 20 µg/g
[2] = test system: Mus musculus; test: Immunostimulatory activity in C57BL/6JNarl mouse assessed as increase in IL-4 expression level in serum at 20 microg/g, ip and measured after 18 hrs by ELISA; type: functional, organism-based; conditions: dose 20.0 µg/g
[3] = target: T1, Antigen-presenting glycoprotein CD1d1 (Mus musculus) (UniProt P11609); test: Binding affinity to mouse CD1d in alpha-GalCer stimulated mouse iNKT hybridoma DN3A4-1.2 cells expressing co-cultured with mouse A20 cells expressing mouse CD1d assessed as inhibition of alpha-GlaCer activity by measuring IL-2 expression level at 10 to 25 uM incubated for 24 hrs by ELISA; type: cell-based; conditions: iNKT hybridoma DN3A4-1.2 cell, dose 10-25 µM
T1 sequence (whole entry): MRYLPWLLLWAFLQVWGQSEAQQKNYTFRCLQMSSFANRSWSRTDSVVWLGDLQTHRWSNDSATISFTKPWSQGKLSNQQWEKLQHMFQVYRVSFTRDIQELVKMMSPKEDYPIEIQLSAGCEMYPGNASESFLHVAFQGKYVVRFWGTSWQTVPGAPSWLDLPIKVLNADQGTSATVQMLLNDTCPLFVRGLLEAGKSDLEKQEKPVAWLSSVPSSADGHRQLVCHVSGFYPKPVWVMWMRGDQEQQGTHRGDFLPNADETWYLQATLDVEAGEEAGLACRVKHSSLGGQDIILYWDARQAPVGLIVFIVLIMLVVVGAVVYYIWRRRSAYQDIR

[4] = test system: Mus musculus; test: Immunomodulatory activity in OVA-sensitized asthmatic BALB/c mouse model assessed as reduction in IL-4 expression level in BALF at 20 microg/g, ip administered after day 14 OVA sensitization by ELISA; type: functional, organism-based; conditions: dose 20.0 µg/g
[5] = test system: Splenocyte; test: Immunostimulatory activity in MyD88 knockout C57BL/6JNarl mouse splenocytes assessed as increase in IL-6 expression level at 10 to 25 uM incubated for 48 hrs by ELISA; type: functional, cell-based; conditions: dose 10-25 µM
[6] = test system: Mus musculus; test: Immunostimulatory activity in C57BL/6JNarl mouse assessed as increase in IL-4 expression level in serum at 20 microg/g, ip and measured after 2 hrs by ELISA; type: functional, organism-based; conditions: dose 20.0 µg/g
[7] = test system: Mus musculus; test: Immunomodulatory activity in OVA-sensitized asthmatic BALB/c mouse model assessed as reduction in IL-4 expression level in lung at 20 microg/g, ip administered after day 14 OVA sensitization by ELISA; type: functional, organism-based; conditions: dose 20.0 µg/g
[8] = test system: HEK293; test: Cytotoxicity in human HEK293 cells assessed as reduction in cell viability at 25 uM by MTT assay; type: toxicity, cell-based; conditions: hek293, 25 µM
[9] = test system: Splenocyte; test: Immunostimulatory activity in wild-type C57BL/6JNarl mouse splenocytes assessed as increase in IL-6 expression level at 10 to 25 uM incubated for 48 hrs by ELISA; type: functional, cell-based; conditions: dose 10-25 µM
[10] = test system: PBMC; test: Immunostimulatory activity in human PBMC cells assessed as increase in IFN-gamma expression level at 10 to 25 uM by ELISA; type: functional, cell-based; conditions: dose 10-25 µM
[11] = test system: Splenocyte; test: Cytotoxicity in wild-type C57BL/6JNarl mouse splenocytes assessed as reduction in cell viability at 25 uM by MTT assay; type: toxicity, cell-based
[12] = target: T1, Antigen-presenting glycoprotein CD1d1 (Mus musculus); test: Activation of CD1d signaling in mouse iNKT hybridoma DN3A4-1.2 cells co-cultured with mouse A20 cells expressing CD1d assessed as IL-2 expression level at 10 to 25 uM incubated for 24 hrs by ELISA; type: cell-based; conditions: iNKT hybridoma DN3A4-1.2 cell, dose 10-25 µM
[13] = target: Toll-like receptor 4 (Homo sapiens) (UniProt O00206); test: Agonist activity at human TLR4 expressed in human HEK293 cells co-expressing human MD-2 and CD14 assessed as IL-8 expression level at 10 to 25 uM incubated for 24 hrs by ELISA; type: cell-based; conditions: filed as agonist, dose 10-25 µM
Sequence of Toll-like receptor 4 (Homo sapiens) (O00206 whole entry): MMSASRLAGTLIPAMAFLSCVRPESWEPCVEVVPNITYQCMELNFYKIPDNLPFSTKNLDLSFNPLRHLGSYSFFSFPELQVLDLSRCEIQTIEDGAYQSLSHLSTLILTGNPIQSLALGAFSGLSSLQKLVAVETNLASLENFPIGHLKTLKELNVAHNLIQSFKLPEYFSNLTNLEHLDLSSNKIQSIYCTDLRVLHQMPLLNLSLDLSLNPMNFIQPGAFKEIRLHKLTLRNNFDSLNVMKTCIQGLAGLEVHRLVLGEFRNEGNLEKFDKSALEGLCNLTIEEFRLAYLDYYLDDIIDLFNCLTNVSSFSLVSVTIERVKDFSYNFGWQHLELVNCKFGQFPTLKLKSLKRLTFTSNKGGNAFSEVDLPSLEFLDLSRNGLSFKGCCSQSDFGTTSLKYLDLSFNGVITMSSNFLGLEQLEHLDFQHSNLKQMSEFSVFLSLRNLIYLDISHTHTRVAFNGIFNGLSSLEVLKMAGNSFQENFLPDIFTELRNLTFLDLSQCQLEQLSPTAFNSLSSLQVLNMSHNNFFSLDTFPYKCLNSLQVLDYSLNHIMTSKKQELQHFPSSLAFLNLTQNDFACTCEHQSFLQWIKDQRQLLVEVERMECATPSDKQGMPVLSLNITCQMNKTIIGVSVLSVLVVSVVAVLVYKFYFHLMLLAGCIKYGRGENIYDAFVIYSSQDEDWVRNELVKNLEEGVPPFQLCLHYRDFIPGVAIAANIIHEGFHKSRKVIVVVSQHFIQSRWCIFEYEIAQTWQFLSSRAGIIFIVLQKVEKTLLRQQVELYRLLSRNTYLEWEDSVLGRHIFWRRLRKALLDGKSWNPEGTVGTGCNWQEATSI

[14] = target: Toll-like receptor 4 (Homo sapiens) (UniProt O00206); test: Activation of TLR4 signaling in human HEK293 cells assessed as IL-8 expression level at 10 to 25 uM incubated for 24 hrs by ELISA; type: cell-based; conditions: dose 10-25 µM
[15] = test system: PBMC; test: Immunostimulatory activity in human PBMC cells assessed as increase in IL-6 expression level at 10 to 25 uM by ELISA; type: functional, cell-based; conditions: dose 10-25 µM
[16] = test system: Splenocyte; test: Immunostimulatory activity in MyD88 knockout C57BL/6JNarl mouse splenocytes assessed as increase in IFN-gamma expression level at 10 to 25 uM incubated for 48 hrs by ELISA; type: functional, cell-based; conditions: dose 10-25 µM
[17] = target: Toll-like receptor 4 (Homo sapiens) (UniProt O00206); test: Activation of TLR4 signaling in human HEK293 cells expressing human MD-2 and CD14 assessed as IL-8 expression level at 10 to 25 uM incubated for 24 hrs by ELISA; type: cell-based; conditions: dose 10-25 µM
[18] = test system: Mus musculus; test: Immunostimulatory activity in C57BL/6JNarl mouse assessed as increase in IFN-gamma expression level in serum at 20 microg/g, ip and measured after 2 hrs by ELISA; type: functional, organism-based; conditions: dose 20.0 µg/g
[19] = target: Toll-like receptor 2 (Homo sapiens) (UniProt O60603); test: Agonist activity at human TLR2 expressed in human HEK293 cells assessed as IL-8 expression level at 10 to 25 uM incubated for 24 hrs by ELISA; type: cell-based; conditions: dose 10-25 µM
Sequence of Toll-like receptor 2 (Homo sapiens) (O60603 whole entry): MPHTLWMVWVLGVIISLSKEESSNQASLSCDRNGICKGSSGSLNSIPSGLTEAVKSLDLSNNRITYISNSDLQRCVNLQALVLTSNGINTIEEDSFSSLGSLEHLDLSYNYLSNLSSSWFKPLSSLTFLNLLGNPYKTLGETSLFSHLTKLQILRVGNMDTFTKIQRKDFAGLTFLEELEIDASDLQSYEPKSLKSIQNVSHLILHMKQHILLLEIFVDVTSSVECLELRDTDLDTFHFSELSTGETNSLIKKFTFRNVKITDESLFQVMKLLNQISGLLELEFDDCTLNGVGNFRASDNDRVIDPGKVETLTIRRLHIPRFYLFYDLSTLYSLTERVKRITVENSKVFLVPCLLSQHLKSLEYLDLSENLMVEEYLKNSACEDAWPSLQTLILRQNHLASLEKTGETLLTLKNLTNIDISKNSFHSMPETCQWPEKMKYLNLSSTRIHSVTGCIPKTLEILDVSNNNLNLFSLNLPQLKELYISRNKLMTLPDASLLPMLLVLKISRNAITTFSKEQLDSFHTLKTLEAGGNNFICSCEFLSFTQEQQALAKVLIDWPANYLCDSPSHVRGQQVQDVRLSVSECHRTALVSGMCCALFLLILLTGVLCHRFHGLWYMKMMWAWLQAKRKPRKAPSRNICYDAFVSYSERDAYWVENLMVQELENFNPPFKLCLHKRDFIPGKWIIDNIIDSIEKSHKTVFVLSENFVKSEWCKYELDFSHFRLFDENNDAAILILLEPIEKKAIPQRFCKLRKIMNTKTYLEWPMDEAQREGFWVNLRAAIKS

[20] = test system: Mus musculus; test: Immunostimulatory activity in C57BL/6JNarl mouse assessed as increase in IFN-gamma expression level in serum at 20 microg/g, ip and measured after 18 hrs by ELISA; type: functional, organism-based; conditions: dose 20.0 µg/g
[21] = test system: Splenocyte; test: Immunostimulatory activity in wild-type C57BL/6JNarl mouse splenocytes assessed as increase in IFN-gamma expression level at 10 to 25 uM incubated for 48 hrs by ELISA; type: functional, cell-based; conditions: dose 10-25 µM
[22] = test system: BMDC; test: Induction of MyD88 knockout C57BL/6JNarl mouse BMDC cells maturation assessed as increase in IL-12p40 expression level at 10 to 50 uM by ELISA; type: functional, cell-based; conditions: dose 10-50 µM
[23] = test system: BMDC; test: Induction of wild type C57BL/6JNarl mouse BMDC cells maturation assessed as increase in IL-12p40 expression level at 10 to 50 uM by ELISA; type: functional, cell-based; conditions: dose 10-50 µM
[24] = Induction of wild type C57BL/6JNarl mouse BMDC cells maturation assessed as increase in CD86 expression at 10 uM by flow cytometry (Rvb= 10.6%); type: functional
[25] = Induction of MyD88 knockout C57BL/6JNarl mouse BMDC cells maturation assessed as increase in CD86 expression at 50 uM by flow cytometry (Rvb= 15%); type: functional
[26] = test system: Mus musculus; test: Immuno-adjuvant activity in C57BL/6JNarl mouse […] with OT-1 mouse splenocytes assessed as fold increase in OVA-specific CD8+ T cell proliferation at 20 microg/g, ip in presence of OVA (257 to 264 residues) peptide treatment by flow cytometry relative to control; type: functional; conditions: dose 20 µg/g
[27] = test system: Mus musculus; test: Anti-inflammatory activity in OVA-sensitized asthmatic BALB/c mouse model assessed as reduction in IL-13 expression level in BALF at 20 microg/g, ip administered after day 14 OVA sensitization by ELISA; type: functional, organism-based; conditions: dose 20.0 µg/g
[28] = test system: Mus musculus; test: Anti-inflammatory activity in OVA-sensitized asthmatic BALB/c mouse model assessed as reduction in IL-13 expression level in lung at 20 microg/g, ip administered after day 14 OVA sensitization by ELISA; type: functional, organism-based; conditions: dose 20.0 µg/g
[29] = test system: Mus musculus; test: Immunostimulatory activity in C57BL/6JNarl mouse assessed as increase in IL-4 mRNA expression level in spleen at 20 microg/g, ip by RT-qPCR analysis; type: functional, organism-based; conditions: dose 20.0 µg/g
[30] = test system: Mus musculus; test: Immunostimulatory activity in C57BL/6JNarl mouse assessed as increase in Cd86 mRNA expression level in spleen at 20 microg/g, ip by RT-qPCR analysis; type: functional, organism-based; conditions: dose 20.0 µg/g
[31] = Induction of wild type C57BL/6JNarl mouse BMDC cells maturation assessed as increase in CD86 expression at 50 uM by flow cytometry (Rvb= 10.6%); type: functional

Row | SMILES | Activity [1] | Activity [2] | Activity [3] | Activity [4] | Activity [5] | Activity [6] | Activity [7] | Activity [8] | Activity [9] | Activity [10] | Activity [11] | Activity [12] | Activity [13] | Activity [14] | Activity [15] | Activity [16] | Activity [17] | Activity [18] | Activity [19] | Activity [21] | also measured
1 | CCCCCCCCCCCCNC(=O)[C@H](CS[C@@H]1[C@H](O)[C@@H](O)[C@@H](O)[C@H]2COC(=O)N21)NC(=O)CCCCCCCCCCC | 50% | Active | inactive | Active | inactive | Active | Active | Non-Toxic | inactive | inactive | Non-Toxic | inactive | Active | inactive | inactive | inactive | inactive | Active | inactive | Active | Activity [20]: Active
2 | CCCCCCCCCCCCNC(=O)[C@H](CO[C@@H]1[C@H](O)[C@@H](O)[C@H](O)[C@H]2COC(=O)N21)NC(=O)CCCCCCCCCCC | 50% | Active | inactive | Active | inactive | Active | Active | Non-Toxic | Active | Active | Non-Toxic | inactive | Active | inactive | Active | inactive | inactive | Active | inactive | Active | Activity [22]: inactive; Activity [23]: Dose-Dependent Effect; Activity [24]: 25.8%; Activity [25]: 23.8%; fold change (FC) [26]: 5; Activity [27]: Active; Activity [28]: Active; Activity [20]: Active; Activity [29]: Active; Activity [30]: Active; Activity [31]: 54.9%
3 | CCCCCCCCCCCCNC(=O)[C@H](CO[C@@H]1[C@H](O)[C@@H](O)[C@@H](O)[C@H]2COC(=O)N21)NC(=O)CCCCCCCCCCC | 50% | Active | inactive | Active | inactive | Active | Active | Non-Toxic | Active | Active | Non-Toxic | inactive | Active | inactive | Active | inactive | inactive | Active | inactive | Active | fold change (FC) [26]: 10; Activity [27]: Active; Activity [28]: Active; Activity [20]: Active
4 | CCCCCCCCCCCCNC(=O)[C@H](CS[C@@H]1[C@H](O)[C@@H](O)[C@H](O)[C@H]2COC(=O)N21)NC(=O)CCCCCCCCCCC | 50% | Active | inactive | Active | inactive | Active | Active | Non-Toxic | inactive | inactive | Non-Toxic | inactive | Active | inactive | inactive | inactive | inactive | Active | inactive | Active | Activity [20]: Active
5 | CCCCCCCCCCCNC(=O)[C@H](CO[C@H]1O[C@H](CO)[C@H](O)[C@H](O)[C@H]1O)NC(=O)CCCCCCCCCCC | – | – | inactive | – | inactive | – | – | – | Active | – | – | – | – | – | – | inactive | – | – | – | Active | –
